Patent publication US10106510B2, “Substituted isoxazoles for treating cancer” (EPIZYME, INC., priority 2014, dated 2018)

Biological target: SMYD3 (Homo sapiens (Human), UniProt Q9H7B4)
Assay: SMYD3 biochemical assay (SMYD3 enzyme assay on MEKK2 protein substrate, scintillation proximity assay)
Details: 3H-SAM, SPA, IC50 values are an average of n = 1 to n = 50, read-out: SMYD3 Biochem IC50
Text: S-adenosylmethionine (SAM), S-adenosylhomocysteine (SAH), Tris, Tween20, dimethylsulfoxide (DMSO), bovine skin gelatin (BSG), and Tris(2-carboxyethyl)phosphine hydrochloride solution (TCEP) were purchased from Sigma-Aldrich at the highest level of purity possible. ^3H-SAM was purchase from American Radiolabeled Chemicals with a specific activity of 80 Ci/mmol. 384-well opaque white OptiPlates and SPA beads (Perkin Elmer, catalog # RPNQ0013) were purchased from PerkinElmer.
N-terminally GST-tagged MEKK2 (MAP3K2) protein corresponding to reference sequence AAF63496.3 was purchased from Life Technologies (catalog # PV4010). […] Protein identity was confirmed by MS/MS analysis after proteolytic digestion. The protein sequence used was:
Full-length human SMYD3 isoform 1 (BAB86333) was inserted into a modified pET21b plasmid containing a His6 tag and TEV and SUMO cleavage sites. Because two common variants of SMYD3 exist in the population, site directed mutagenesis was subsequently performed to change amino acid 13 from an asparagine to a lysine, resulting in plasmid pEPZ533.
E. coli (BL21 codonplus RIL strain, Stratagene) were transformed with plasmid pEPZ553 by mixing competent cells and plasmid DNA and incubating on ice for 30minutes followed by heat shock at 42° C. for 1 minute and cooling on ice for 2 minutes. Transformed cells were grown and selected on LB agar with 100 μg/mL ampicillin and 17 μg/mL chloramphenicol at 37° C. overnight. A single clone was used to inoculate 200 mL of LB medium with 100 μg/mL ampicillin and 17 μg/mL chloramphenicol and incubated at 37° C. on an orbital shaker at 180 rpm. Once in log growth, the culture was diluted 1:100 into 2 L of LB medium and grown until OD600 was about 0.3 after which the culture was incubated at 15° C. and 160 rpm. Once OD600 reached about 0.4, IPTG was added to a final concentration of 0.1 mM and the cells were grown overnight at 15° C. and 160 rpm. Cells were harvested by centrifugation at 8000 rpm, for 4 minutes at 4° C. and stored at −80° C. for purification.
The column was washed with Buffer B (Buffer A plus 20 mM imidazole) and His-tagged SMYD3 was eluted with Buffer C (Buffer A plus 300 mM imidazole). The His tag, TEV and SUMO cleavage sites were removed generating native SMYD3 by addition of ULP1 protein at a ratio of 1:200 (ULP1:SMYD3). Imidazole was removed by dialysis overnight in Buffer A. The dialyzed solution was applied to a second Nickel column and the native SMYD3 protein was collected from the column flow-through. The flow-through was dialyzed in Buffer D (25 mM Tris, 5% glycerol, 5 mM β-mercaptoethanol, 50 mM NaCl, pH7.8) and ULP1 was removed using a Q sepharose fast flow column.
General Procedure for SMYD3 Enzyme Assays on MEKK2 Protein Substrate
The assays were all performed in a buffer consisting of 25 mM Tris-Cl pH 8.0, 1 mM TCEP, 0.005% BSG, and 0.005% Tween 20, prepared on the day of use. Compounds in 100% DMSO (1 ul) were spotted into a 384-well white opaque OptiPlate using a Bravo automated liquid handling platform outfitted with a 384-channel head (Agilent Technologies). DMSO (1 ul) was added to Columns 11, 12, 23, 24, rows A-H for the maximum signal control and 1 ul of SAH, a known product and inhibitor of SMYD3, was added to columns 11, 12, 23, 24, rows I-P for the minimum signal control. A cocktail (40 ul) containing the SMYD3 enzyme was added by Multidrop Combi (Thermo-Fisher). The compounds were allowed to incubate with SMYD3 for 30 min at room temperature, then a cocktail (10 ul) containing SAM and MEKK2 was added to initiate the reaction (final volume=51 ul).

Chain of SMYD3 (Q9H7B4 whole entry): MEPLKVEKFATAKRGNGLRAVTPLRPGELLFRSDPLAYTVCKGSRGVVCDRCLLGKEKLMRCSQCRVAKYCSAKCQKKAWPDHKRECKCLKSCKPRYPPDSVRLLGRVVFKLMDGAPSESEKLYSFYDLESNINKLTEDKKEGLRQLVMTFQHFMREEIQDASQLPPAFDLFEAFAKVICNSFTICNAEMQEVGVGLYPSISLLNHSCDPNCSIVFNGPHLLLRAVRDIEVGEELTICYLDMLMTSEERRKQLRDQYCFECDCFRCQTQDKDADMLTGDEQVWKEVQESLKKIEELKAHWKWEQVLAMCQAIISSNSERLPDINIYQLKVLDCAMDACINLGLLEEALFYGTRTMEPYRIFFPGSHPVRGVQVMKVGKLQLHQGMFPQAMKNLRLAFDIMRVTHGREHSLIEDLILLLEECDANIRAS

Structure (SMILES)	IC50 [nM]
C[C@H](N)CC(=O)N[C@H]1CC[C@H](N(CCc2ccccc2)C(=O)c2cc(C3CC3)on2)CC1 [compound 54, N-((1S,4r)-4-((S)-3-aminobutanamido)cyclohexyl)-5-cyclopropyl-N-phenethylisoxazole-3-carboxamide]	11600
C[C@H](N)CC(=O)N[C@H]1CC[C@H](N(Cc2ccccc2)C(=O)c2cc(C3CC3)on2)CC1 [compound 53, N-((1S,4r)-4-((S)-3-aminobutanamido)cyclohexyl)-N-benzyl-5-cyclopropylisoxazole-3-carboxamide]	19700
NCC(O)C(=O)N[C@H]1CC[C@H](NC(=O)c2cc(C3CC3)on2)CC1 (stereo partly drawn) [compound 27, N-((1r,4r)-4-(3-amino-2-hydroxypropanamido)cyclohexyl)-5-cyclopropylisoxazole-3-carboxamide]	567
CC(C)CN(C(=O)c1cc(C2CC2)on1)[C@H]1CC[C@H](NC(=O)CCN)CC1 [compound 43, N-((1r,4r)-4-(3-aminopropanamido)cyclohcxyl)-5-cyclopropyl-N-isobutylisoxazole-3-carboxamide]	4490
NCCCS(=O)(=O)N[C@H]1CC[C@H](NC(=O)c2cc(C3CC3)on2)CC1 [Cpd. No. 34, N-((1r,4r)-4-((3-amino-propyl)sulfonamido)cyclohexyl)-5-cyclopropylisoxazole-3-carboxamide]	1340
NCCC(=O)N[C@H]1CC[C@H](N(CCO)C(=O)c2cc(C3CC3)on2)CC1 [compound 52, N-((1r,4r)-4-(3-aminopropanamido)cyclohexyl)-5-cyclopropyl-N-(2-hydroxyethyl)isoxazole-3-carboxamide]	16800
NCCC(=O)N(CCN)[C@H]1CC[C@H](NC(=O)c2cc(C3CC3)on2)CC1 [compound 35, N-((1r,4r)-4-(3-amino-N-(2-aminoethyl)propanamido)cyclohexyl)-5-cyclopropylisoxazole-3-carboxamide]	883
C[C@H](N)CC(=O)N[C@H]1CC[C@@H](N(C)C(=O)c2cc(C3CC3)on2)CC1 [compound 57, N-((1R,4s)-4-((S)-3-aminobutanamido)cyclohexyl)-5-cyclopropyl-N-methylisoxazole-3-carboxamide]	25800
NCCS(=O)(=O)N[C@H]1CC[C@H](NC(=O)c2cc(C3CC3)on2)CC1 [compound 29, N-((1r,4r)-4-((2-aminoethyl)sulfonamido)cyclohexyl)-5-cyclopropylisoxazole-3-carboxamide]	2900
CNCCC(=O)N[C@H]1CC[C@H](NC(=O)c2cc(C3CC3)on2)CC1 [compound 12, 5-cyclopropyl-N-((1r,4r)-4-(3-(methylamino)propanamido)cyclohexyl) isoxazole-3-carboxamide]	867
CCS(=O)(=O)N[C@H]1CC[C@H](NC(=O)c2cc(C3CC3)on2)CC1 [compound 37, 5-cyclopropyl-N-((1r,4r)-4-(ethylsulfonamido)cyclohexyl)isoxazole-3-carboxamide]	6360
CC(N)CC(=O)N[C@H]1CC[C@H](NC(=O)c2cc(C3CC3)on2)CC1 (stereo partly drawn) [compound 1, N-((1r,4r)-4-(3-aminobutanamido)cyclohexyl)-5-cyclopropylisoxazole-3-carboxamide]	466
NCCC(=O)N(CCCO)[C@H]1CC[C@H](NC(=O)c2cc(C3CC3)on2)CC1 [compound 38, N-((1r,4r)-4-(3-amino-N-(3-hydroxypropyl)propanamido)cyclohexyl)-5-cyclopropylisoxazole-3-carboxamide]	1200
O=C(CCNCc1ccccc1)N[C@H]1CC[C@H](NC(=O)c2cc(C3CC3)on2)CC1 [compound 18, N-((1r,4r)-4-(3-(benzylamino)propanamido)cyclohexyl)-5-cyclopropylisoxazole-3-carboxamide]	671
C[C@@H](N)CC(=O)N[C@H]1CC[C@@H](N(C)C(=O)c2cc(C3CC3)on2)CC1 [compound 55, N-((1S,4s)-4-((R)-3-aminobutanamido)cyclohexyl)-5-cyclopropyl-N-methylisoxazole-3-carboxamide]	24400
